From ChEMBL document CHEMBL4765493, “Berberine Directly Targets the NEK7 Protein to Block the NEK7-NLRP3 Interaction and Exert Anti-inflammatory Activity” (J Med Chem, 2021)
pIC50, pKd: −log10 of the molar value. Calls of active or inactive are those of the source. No cut-off for these calls is given here.

Key:
Mus musculus [1] = assay: Antiinflammatory activity in NEK7 wild type C57BL/6 mouse model assessed as reduction in lesion in kidney in at 5 mg/kg, ip dosed three times every 12 hrs followed by LPS challenge by H and E staining; assay type: functional, organism-based
[2] = target: T1, Serine/threonine-protein kinase Nek7 (Homo sapiens, UniProt Q8TDX7); assay: Inhibition of purified recombinant human NEK7 incubated for 15 mins before ATP and substrate addition and further incubated for 40 mins by ADPGlo kinase assay
Target sequence in this assay (Q8TDX7 whole entry): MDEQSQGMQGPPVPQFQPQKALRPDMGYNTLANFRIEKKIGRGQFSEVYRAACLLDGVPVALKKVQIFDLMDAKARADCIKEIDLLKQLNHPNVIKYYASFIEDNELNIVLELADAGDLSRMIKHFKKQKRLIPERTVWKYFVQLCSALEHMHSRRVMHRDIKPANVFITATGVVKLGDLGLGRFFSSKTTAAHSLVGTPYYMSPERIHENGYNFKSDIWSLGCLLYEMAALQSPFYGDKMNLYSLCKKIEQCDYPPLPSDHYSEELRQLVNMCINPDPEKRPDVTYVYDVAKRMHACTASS

THP-1 [3] = assay: Inhibition of LPS + nigericin-induced IL-1beta secretion in human THP-1 cells pre-treatment for 4 hrs before LPS + nigericin by immunoblot analysis; assay type: functional, cell-based
THP-1 [4] = assay: Inhibition of LPS + nigericin-induced pro-IL-beta expression in human THP-1 cells at 2.5 to 20 uM pre-treatment for 4 hrs before LPS + nigericin by immunoblot analysis; assay type: functional, cell-based; details: dose 2.5-20 µM
[5] = Inhibition of LPS + nigericin-induced IL-1beta secretion in PMA-differentiated human THP-1 cells at 20 uM incubated for 24 hrs by ELISA; assay type: functional
[6] = target: T1, Serine/threonine-protein kinase Nek7; assay: Binding affinity to purified recombinant human NEK7 by SPR analysis
Target sequence in this assay (Q8TDX7 whole entry): as above

HEK293 [7] = assay: Inhibition of NEK7-NLRP3 interaction (unknown origin) expressed in HEK293 cells at 10 uM incubated for 24 hrs by Co-IP assay; assay type: cell-based; details: Homo sapiens
Mus musculus [8] = assay: Antiinflammatory activity in NEK7 wild type C57BL/6 mouse model assessed as reduction in lesion in spleen in at 5 mg/kg, ip dosed three times every 12 hrs followed by LPS challenge by H and E staining; assay type: functional, organism-based
HEK293 [9] = assay: Inhibition of NEK7-NLRP3 interaction (unknown origin) expressed in HEK293 cells incubated for 24 hrs by Co-IP assay; assay type: cell-based; details: Homo sapiens
Mus musculus [10] = assay: Antiinflammatory activity in NEK7 wild type C57BL/6 mouse model assessed as reduction in lesion in lung in at 5 mg/kg, ip dosed three times every 12 hrs followed by LPS challenge by H and E staining; assay type: functional, organism-based
HEK293 [11] = assay: Inhibition of NEK7 R121A mutant-NLRP3 interaction (unknown origin) expressed in HEK293 cells at 10 uM incubated for 24 hrs by Co-IP assay; assay type: cell-based; details: Homo sapiens
[12] = target: T1, Serine/threonine-protein kinase Nek7; assay: Binding affinity to NEK7 in PMA-differentiated human THP-1 cells at 100 uM incubated for 8 hrs by streptavidin-bead enrichment and immunoblot assay; assay type: cell-based
Target sequence in this assay (Q8TDX7 whole entry, looked up): as the sequence (Q8TDX7 whole entry) above

[13] = Toxicity in mouse BMDM cells assessed as induction of apoptosis by measuring cleaved caspase-7 levels up to 40 uM incubated for 24 hrs by immunoblot analysis; assay type: cell-based
BMDM [14] = assay: Inhibition of LPS + nigericin-induced caspase-1 activation in mouse BMDM at 2.5 to 20 uM pre-treatment for 4 hrs before LPS + nigericin by immunoblot analysis; assay type: functional, tissue-based; details: dose 2.5-20 µM
THP-1 [15] = assay: Inhibition of LPS + nigericin-induced NLRP3 expression in human THP-1 cells at 2.5 to 20 uM pre-treatment for 4 hrs before LPS + nigericin by immunoblot analysis; assay type: functional, cell-based; details: dose 2.5-20 µM
Mus musculus [16] = assay: Antiinflammatory activity in NEK7 wild type C57BL/6 mouse model assessed as reduction in lesion in heart in at 5 mg/kg, ip dosed three times every 12 hrs followed by LPS challenge by H and E staining; assay type: functional, organism-based
[17] = Toxicity in mouse BMDM cells assessed as induction of cell death up to 40 uM incubated for 24 hrs by MTS assay; assay type: cell-based
Mus musculus [18] = assay: Antiinflammatory activity in NEK7 wild type C57BL/6 mouse model assessed as reduction in inflammatory infiltration in liver at 5 mg/kg, ip dosed three times every 12 hrs followed by LPS challenge by H and E staining; assay type: functional, organism-based
THP-1 [19] = assay: Inhibition of LPS + nigericin-induced ASC-pyroptosome formation in human THP-1 cells at 5 to 10 uM uM pre-treatment for 4 hrs before LPS + nigericin addition by immunofluorescence analysis; assay type: functional, cell-based; details: dose 5-10 µM
BMDM [20] = assay: Inhibition of LPS + nigericin-induced IL-1beta secretion in mouse BMDM at 2.5 to 20 uM pre-treatment for 4 hrs before LPS + nigericin by immunoblot analysis; assay type: functional, tissue-based; details: dose 2.5-20 µM
THP-1 [21] = assay: Inhibition of NEK7-NLRP3 interaction in human THP-1 cells incubated for 24 hrs by Co-IP assay; assay type: cell-based
Mus musculus [22] = assay: Inhibition of serum IL-1beta production in NEK7 wild type C57BL/6 mouse model at 5 mg/kg, ip dosed three times every 12 hrs followed by LPS challenge by ELISA; assay type: functional, organism-based
[23] = Toxicity in mouse BMDM cells assessed as induction of apoptosis by measuring cleaved caspase-9 levels up to 40 uM incubated for 24 hrs by immunoblot analysis; assay type: cell-based
Mus musculus [24] = assay: Inhibition of serum IL-1beta production in NEK7 knockdown C57BL/6 mouse model at 5 mg/kg, ip dosed three times every 12 hrs followed by LPS challenge by ELISA; assay type: functional, organism-based
BMDM [25] = assay: Inhibition of LPS + nigericin-induced pro-IL-1beta expression in mouse BMDM at 2.5 to 20 uM pre-treatment for 4 hrs before LPS + nigericin by immunoblot analysis; assay type: functional, tissue-based; details: dose 2.5-20 µM
BMDM [26] = assay: Inhibition of LPS + nigericin-induced NLRP3 expression in mouse BMDM at 2.5 to 20 uM pre-treatment for 4 hrs before LPS + nigericin by immunoblot analysis; assay type: functional, tissue-based; details: dose 2.5-20 µM
[27] = Toxicity in mouse BMDM cells assessed as induction of apoptosis by measuring cleaved caspase-3 levels up to 40 uM incubated for 24 hrs by immunoblot analysis; assay type: cell-based
THP-1 [28] = assay: Inhibition of LPS + nigericin-induced caspase-1 activation in human THP-1 cells pre-treatment for 4 hrs before LPS + nigericin by immunoblot analysis; assay type: functional, cell-based
[29] = target: T1, Serine/threonine-protein kinase Nek7; assay: Binding affinity to NEK7 in PMA-differentiated human THP-1 cells assessed as reduction in Cy3-labeled target proteins at 100 uM incubated for 8 hrs using probe-16 by fluorescent gel imaging analysis; assay type: cell-based
Target sequence in this assay (Q8TDX7 whole entry, looked up): as the sequence (Q8TDX7 whole entry) above

THP-1 [30] = assay: Inhibition of AIM2-induced IL-1beta activation in human THP-1 cells at 10 uM pre-treatment for 2 hrs before AIM2 addition; assay type: functional, cell-based
[31] = Inhibition of LPS + nigericin-induced IL-1beta secretion in PMA-differentiated human THP-1 cells incubated for 1 to 24 hrs by Immunoblot analysis; assay type: functional, cell-based

COc1ccc2cc3[n+](cc2c1OC)CCc1cc2c(cc1-3)OCO2.[Cl-] [BERBERINE CHLORIDE]
Activity (Mus musculus [1]): Active
pIC50 [2]: 5.38
inhibition (THP-1 [3]): Active
inhibition (THP-1 [4]): inactive
inhibition at 20 µM [5]: 72%
pKd [6]: 4.81
inhibition (HEK293 [7]): Active
Activity (Mus musculus [8]): Active
inhibition (HEK293 [9]): Dose-dependent effect
Activity (Mus musculus [10]): Active
inhibition (HEK293 [11]): inactive
Activity [12]: Active
Activity [13]: Non-Toxic
inhibition (BMDM [14]): Active
inhibition (THP-1 [15]): inactive
Activity (Mus musculus [16]): Active
Activity [17]: Non-Toxic
Activity (Mus musculus [18]): Active
inhibition (THP-1 [19]): Active
inhibition (BMDM [20]): Active
inhibition (THP-1 [21]): Dose-dependent effect
Activity (Mus musculus [22]): Active
Activity [23]: Non-Toxic
Activity (Mus musculus [24]): inactive
inhibition (BMDM [25]): inactive
inhibition (BMDM [26]): inactive
Activity [27]: Non-Toxic
inhibition (THP-1 [28]): Active
Activity [29]: Active
inhibition (THP-1 [30]): inactive
pIC50 [31]: 5.29
